Laboratory results published in patent publication US12297457B2, “Esophageal tissue and/or organoid compositions and methods of making same” (Children's Hospital Medical Center, priority 2017, dated 2025).
“Also recorded” adds a separate entry of the source.

Columns and labels:
Format in all cases: cell-based, human
[1] = system: foregut spheroids; test: Anterior-posterior patterning of foregut spheroids (qPCR, IF); details: for regional identity of foregut spheroids (HNF1β, SOX2, PROX1, HNF6): shorter duration of treatment following DE formation, day 6 spheroids
Experimental: Confluent hPSC cultures were treated with Acutase (STEMCELL Technologies) to resuspend as single cells in mTeSR1 and Y-27632 (10 μM, Tocris) and plated on Matrigel. On the following day, differentiation into definitive endoderm was carried out as previously described (McCracken et al., 2014). Briefly, cells were treated with Activin A (100 ng mL-1, R&D systems, Minneapolis, Minn.) and BMP4 (50 ng mL-1, R&D systems) on the first day in RPMI 1640 media (Life Technologies). Cells in the following two days were treated with only Activin A (100 ng mL-1) in RPMI 1640 with increasing concentrations 0.2% and 2% of HyClone defined fetal bovine serum (dFBS, GE Healthcare Life Sciences).
For anterior foregut monolayer cultures, cells were treated for 3 days in Noggin (200 ng mL-1) in RPMI 1640 with 2% dFBS, with all-trans retinoic acid (2 μM, Sigma, St. Louis, Mo.) the 3rd day.
(§1) Alternately, for the generation of anterior foregut spheroids, from definitive endoderm, cells were treated with FGF4 (500 ng mL-1, R&D systems), Noggin (200 ng mL-1) for 3 days in RPMI 1640 with 2% dFBS. Additional factors were tested during this time (described in results), such as CHIR99021 (“chiron” or “chr”, 2 μM, Tocris), Wnt3a (500 ng mL-1, R&D systems), SB431542 (10 μM, Tocris), DEAB (10 μM, Sigma), and retinoic acid (2 μM).
Tissue cultures were fixed with 4% paraformaldehyde at either room temperature for 15 minutes, 4° C. for 2 hours for cryosectioning, or 4° C. overnight for paraffin embedding/sectioning and mouse embryos. For paraffin embedding and sectioning, following fixation, tissues were dehydrated and embedded into paraffin blocks. Afterwards, paraffin-sectioned slides were deparaffinized and subjected to antigen retrieval in 10 mM sodium citrate for 30 minutes prior to staining. For cryosectioning, tissues were thoroughly washed in PBS, left in 30% sucrose overnight, embedded in OCT compound (VWR), and sectioned at a thickness of 8 μm. Commonly, slides were then permeabilized with 0.5% TritonX-100 in PBS for 10 minutes, blocked in 5% normal donkey serum (Jackson ImmunoResearch) for 1 hour, and incubated in primary antibody overnight at 4° C. On the next day, slides were thoroughly washed in PBS, incubated in secondary antibody (at 1:500) for 1 hour, and then thoroughly washed again. For EdU visualization, Applicant used the Click-iT EdU Alexa Fluor 488 Imaging Kit (Invitrogen) prior to blocking. For wholemount immunofluorescence staining, embryos were placed in 100% methanol immediately after fixation. Embryos were then permeabilized with Dent's Bleach (4:1:1 MeOH:DMSO:30% H2O2) for 2 hours at room temperature, rehydrated with methanol washes, and blocked for several hours at room temperature to overnight at 4° C. Primary antibodies were applied and embryos incubated overnight at 4° C. Then, embryos were thoroughly washed in 0.1% TritonX-100 in PBS before incubating in secondary antibodies overnight at 4° C. Finally, embryos were washed again, dehydrated with methanol washes, and cleared with Murray's Clear (2:1 benzyl benzoate:benzyl alcohol, Sigma) at least 15 minutes prior to imaging. For a list of antibodies and dilutions used, please see Table 2.
Spheroid and organoids were harvested in total, including the embedding matrigel. Collagen plugs from the organotypic raft cultures were first removed from the transwell on day 14, and subsequently harvested in total. Total RNA was isolated using the NucleoSpin RNA kit (Macherey-Nagel) and reverse transcribed to cDNA using the SuperScript VILO cDNA synthesis kit (ThermoFisher Scientific). For qRT-PCR, Applicant used Quantitect SYBR-Green master mix (Qiagen) and ran the reaction on a QuantStudio 6 machine (ThermoFisher Scientific). For a list of primers used, please see Table 1.

[2] = system: CDX2-induced HEOs; test: Notch inhibition in CDX2-induced HEOs (qPCR, IF); details: d58 HEOs
Experimental: Human embryonic stem cell (hESC) line H1 (WA01, person) were purchased from WiCell. iPSC line iPS106 was generated in-house and approved by the institutional review board at CCHMC. All hPSCs were maintained on feeder-free cultures: cells were plated on hESC-qualified Matrigel (BD Biosciences, San Jose, Calif.) and maintained at 37° C. with 5% CO2 with daily replacement of mTeSR1 media (STEMCELL Technologies, Vancouver, Canada); cells were passaged routinely every 4 days using Dispase (STEMCELL Technologies). The HA-tagged SOX2, CDX2, or FANCA dox-inducible lines were generated by first cloning the human SOX2 ORF, CDX2 ORF, or FANCA ORF into pINDUCER20 (respectively) (Addgene #44012, Meerbrey et al., 2011). Next, lentivirus was generated with help of the Viral Vector Core Facility at CCHMC. The lentivirus for HA-SOX2 and CDX2 were transduced into hESCs with 2 μL of virus; these lines were maintained on selection with mTeSR1 and G418 (500 μg mL-1, ThermoFisher Scientific). The lentivirus for FANCA were transduced prior to the iPS106 line generation, as FANCA is required for maintenance of hPSC properties. The hESC H1 line (and transduced derivatives) was used in all experiments excluding Fanconi Anemia modeling in HEOs, which used the iPS106 line.
(§2) For the generation of anterior foregut spheroids, from definitive endoderm, cells were treated with Wnt3a (500 ng mL-1, R&D systems) for 2 days, and FGF4 (500 ng mL-1, R&D systems), Noggin (200 ng mL-1) for 3 days in RPMI 1640 with 2% dFBS. Three-dimensional culture and differentiation of anterior foregut spheroids into human esophageal organoids were obtained as described above.
Tissue cultures were fixed with 4% paraformaldehyde at either room temperature for 15 minutes (for monolayer cultures), or 4° C. for overnight (for organoids). […]
Monolayer cultures and organoids were harvested in total, including the plated/embedding matrigel. […] For qRT-PCR, Applicant used Quantitect SYBR-Green master mix (Qiagen) and ran the reaction on a QuantStudio 6 machine (ThermoFisher Scientific).

[3] = system: HEOs; test: IL-13 treatment of HEOs, eosinophilic esophagitis model (qPCR, Western blot, IF, EdU, H&E, electron microscopy)
Experimental: (§3) Anterior foregut spheroids were transferred into 50 μL droplets of Matrigel, and are cultured for 3-58 days in the base (“Gut”) media of Advanced DMEM/F12 (ThermoFisher Scientific) supplemented with B27 supplement (1×, ThermoFisher Scientific), N2 supplement (1×, ThermoFisher Scientific), HEPES (13 mM, ThermoFisher Scientific), L-Glutamine (2 mM ThermoFisher Scientific), penicillin/streptomycin (1×, ThermoFisher Scientific), and EGF (100 ng mL^−1, R&D systems). In addition to this base media, the first three days were supplemented with Noggin (200 ng mL^−1), FGF10 (50 ng mL^−1), and CultureOne supplement (1×, ThermoFisher Scientific). FGF10 and CultureOne supplementation is continued until the end of the first week in three-dimensional culture. Media was replaced every 3-4 days. For EdU labeling, media was supplemented with EdU (10 μM Invitrogen) for a defined period of time, and was removed by washing with sterile PBS twice before replacing with media without EdU.
as §2
(§4) Tissue cultures were fixed with 4% paraformaldehyde at either room temperature for 15 minutes (for monolayer cultures), or 4° C. for overnight (for organoids). Tissues were thoroughly washed in PBS and stained for monolayer cultures, while organoids were thoroughly washed and then left in 30% sucrose overnight, embedded in OCT compound (VWR), and sectioned at a thickness of 8 μm. Slides were then permeabilized with 0.5% TritonX-100 in PBS for 10 minutes, blocked in 5% normal donkey serum (Jackson ImmunoResearch) for 1 hour minimum, and incubated in primary antibody overnight at 4° C. On the next day, slides were thoroughly washed in PBS, incubated in secondary antibody (at 1:500) for 1 hour, and then thoroughly washed again. For EdU visualization, the Click-iT EdU Alexa Fluor 488 Imaging Kit (Invitrogen) was used prior to blocking.
(§5) Monolayer cultures and organoids were harvested in total, including the plated/embedding matrigel. Total RNA was isolated using the NucleoSpin RNA kit (Macherey-Nagel) and reverse transcribed to cDNA using the SuperScript VILO cDNA synthesis kit (ThermoFisher Scientific). For qRT-PCR, Applicant used Quantitect SYBR-Green master mix (Qiagen) and ran the reaction on a QuantStudio 6 machine (ThermoFisher Scientific).

[4] = system: AFG spheroids; test: Dorsal-ventral patterning / respiratory induction of anterior foregut spheroids (qPCR, IF); details: day 6 AFG spheroids treated 3 days; analysed day 9
Experimental: as §1
Anterior foregut spheroids were transferred into 50 μL droplets of Matrigel, and are cultured for 3-58 days in the base (“Gut”) media of Advanced DMEM/F12 (ThermoFisher Scientific) supplemented with B27 supplement (1×, ThermoFisher Scientific), N2 supplement (1×, ThermoFisher Scientific), HEPES (13 mM, ThermoFisher Scientific), L-Glutamine (2 mM ThermoFisher Scientific), penicillin/streptomycin (1×, ThermoFisher Scientific), and EGF (100 ng mL^−1, R&D systems). In addition to this base media, the first three days were supplemented with Noggin (200 ng mL^−1), FGF10 (50 ng mL^−1), and CultureOne supplement (1×, ThermoFisher Scientific). […]
Spheroid and organoids were harvested in total, including the embedding matrigel. […] For qRT-PCR, Applicant used Quantitect SYBR-Green master mix (Qiagen) and ran the reaction on a QuantStudio 6 machine (ThermoFisher Scientific). […]

[5] = system: HEOs; test: BMP activation in late stage HEOs (IF, EdU, qPCR)
Experimental: as §3, §2, §4, §5

[6] = 6-week-old HEOs, BMP4 100 ng/mL for additional 2 weeks

CC1=C(/C=C/C(C)=C/C=C/C(C)=C/C(=O)O)C(C)(C)CCC1 [RA, all-trans retinoic acid]
marker expression after RA treatment ([1]; 1 day of RA): promotes expression of TP63 and KRT4 and not posterior foregut markers GATA4 and PDX1; also recorded: spheroids that express TP63 | marker expression after RA treatment ([1]; RA for 4 days): express posterior foregut markers, GATA4 and PDX1

C[C@H](NC(=O)Cc1cc(F)cc(F)c1)C(=O)N[C@H](C(=O)OC(C)(C)C)c1ccccc1 [DAPT]
KRT5 expression ([2]; CDX2-induction plus DAPT): further downregulated | KRT13 expression, effect added to CDX2-induction ([2]; CDX2-induction plus DAPT): does not appear to be a synergistic effect | HESS (Notch target gene) expression ([2]; qPCR): downregulated

IL-13: a cytokine known to enact broad changes in the esophagus
epithelial morphology by electron microscopy ([3]; IL-13 100 ng/mL for 2 weeks): increased spaces between individual cells and a decrease in cell-cell contacts | EdU incorporation in the basal-most p63+ cells ([3]; IL-13 100 ng/mL for 2 weeks, EdU 2 days): increased | BMP antagonists NOG and FST expression ([3]; IL-13 100 ng/mL for 2 weeks, qPCR): did not upregulate | epithelial morphology ([3]; IL-13 100 ng/mL for 2 weeks, IF, H&E): dilated intercellular spaces suprabasally | late differentiation and structural proteins ([3]; IL-13 100 ng/mL, 1-2 weeks): downregulated late differentiation and structural proteins DSG1, IVL, and CRNN | PTCH1 expression (read-out for hedgehog signaling) ([3]; IL-13 alone): upregulates | BMP target gene ID3 expression ([3]; day 62 HEOs, qPCR): mild increase | IL-13 target gene response ([3]; extended treatment (100 ng/mL, 1 week), Western blot): maintained upregulation of some target genes SERPINB13 and CDH26 | IL-13 target gene response ([3]; short duration (2 days prior to harvest), day 62 HEOs, qPCR): validated the response of target genes CCL26, CDH26, CAPN14, and SERPINB4

Cc1c[nH]c(-c2cnc(NCCNc3ccc(C#N)cn3)nc2-c2ccc(Cl)cc2Cl)n1 [chiron, CHIR99021]
gene expression profile of spheroids, chiron versus Wnt3a ([1]; one day of chiron treatment, qPCR): same gene expression profile as those generated with 2 days of Wnt3a | regional identity of foregut spheroids (HNF1β, SOX2, PROX1, HNF6) [1]: formation of anterior foregut (AFG) spheroids expressing HNF1β and SOX2, with low levels of posterior foregut markers PROX1 and HNF6

CCN(CC)c1ccc(C=O)cc1 [DEAB]
TP63 and pharyngeal marker expression of spheroids ([1]; cultures containing DEAB (blocking RA synthesis)): spheroids with minimal TP63 expression and increased levels of the pharyngeal markers PAX9 and OTX2

B1: Wnt3a: recombinant human Wnt3a, Wnt ligand (protein, UniProt P56704 19-352, looked up)
Protein Wnt-3a: SYPIWWSLAVGPQYSSLGSQPILCASIPGLVPKQLRFCRNYVEIMPSVAEGIKIGIQECQHQFRGRRWNCTTVHDSLAIFGPVLDKATRESAFVHAIASAGVAFAVTRSCAEGTAAICGCSSRHQGSPGKGWKWGGCSEDIEFGGMVSREFADARENRPDARSAMNRHNNEAGRQAIASHMHLKCKCHGLSGSCEVKTCWWSQPDFRAIGDFLKDKYDSASEMVVEKHRESRGWVETLRPRYTYFKVPTERDLVYYEASPNFCEPNPETGSFGTRDRTCNVSSHGIDGCDLLCCGRGHNARAERRREKCRCVFHWCCYVSCQECTRVYDVHTCK
regional identity of foregut spheroids (HNF1β, SOX2, PROX1, HNF6) [1]: formation of anterior foregut (AFG) spheroids expressing HNF1β and SOX2, with low levels of posterior foregut markers PROX1 and HNF6

B2: Noggin: recombinant human Noggin, used to inhibit BMP signaling (protein, UniProt Q13253 28-232, looked up)
Noggin: QHYLHIRPAPSDNLPLVDLIEHPDPIFDPKEKDLNETLLRSLLGGHYDPGFMATSPPEDRPGGGGGAAGGAEDLAELDQLLRQRPSGAMPSEIKGLEFSEGLAQGKKQRLSKKLRRKLQMWLWSQTFCPVLYAWNDLGSRFWPRYVKVGSCFSKRSCSVPEGMVCKPSKSVHLTVLRWRCQRRGGQRCGWIPIQYPIISECKCSC
dorsal-ventral marker expression (NKX2-1, SOX2, MNX1, KRT4, TP63) [4]: dorsalized spheroids, as marked by elevated levels of SOX2, MNX1, KRT4, and TP63

B3: BMP4: recombinant human BMP4 (protein, UniProt P12644 293-408, looked up)
Bone morphogenetic protein 4: SPKHHSQRARKKNKNCRRHSLYVDFSDVGWNDWIVAPPGYQAFYCHGDCPFPLADHLNSTNHAIVQTLVNSVNSSIPKACCVPTELSAISMLYLDEYDKVVLKNYQEMVVEGCGCR
state of remaining basal cells (pSMAD1/5/9, p63, SOX2) [5, 6]: have active BMP signaling (pSMAD1/5/9+) and express p63, but loss expression of SOX2 | stratification and differentiation markers [5, 6]: loss of stratification and expression of differentiation markers | EdU incorporation ([5]; BMP4 treated HEOs, day 62): minimal EdU incorporation | CDX2 expression ([5]; BMP4 treated HEOs, data not shown): unchanged
